Results from US11078197B2, “5-membered and bicyclic heterocyclic amides as inhibitors of rock” (BRISTOL-MYERS SQUIBB COMPANY, priority 2017, dated 2021).

Molecular target: ROCK2 (Homo sapiens (Human), UniProt O75116)
Assay: ROCK2 assay (peptide phosphorylation, LABCHIP 3000 Reader)
Type: biochemical
Settings: 5 μM ATP, 1.5 μM peptide substrate, dose-response
Experimental: After incubation, the reaction was terminated by the addition of EDTA and the phosphorylated and non-phosphorylated peptides separated using a LABCHIP®3000 Reader (Caliper Life Sciences). […] Compounds were tested in dose-response format, and the inhibition of kinase activity was calculated at each concentration of compound. […] Representative Examples were tested in the ROCK2 assay described above and found having ROCK2 inhibitory activity.

Sequence of ROCK2 (O75116 whole entry, species assumed): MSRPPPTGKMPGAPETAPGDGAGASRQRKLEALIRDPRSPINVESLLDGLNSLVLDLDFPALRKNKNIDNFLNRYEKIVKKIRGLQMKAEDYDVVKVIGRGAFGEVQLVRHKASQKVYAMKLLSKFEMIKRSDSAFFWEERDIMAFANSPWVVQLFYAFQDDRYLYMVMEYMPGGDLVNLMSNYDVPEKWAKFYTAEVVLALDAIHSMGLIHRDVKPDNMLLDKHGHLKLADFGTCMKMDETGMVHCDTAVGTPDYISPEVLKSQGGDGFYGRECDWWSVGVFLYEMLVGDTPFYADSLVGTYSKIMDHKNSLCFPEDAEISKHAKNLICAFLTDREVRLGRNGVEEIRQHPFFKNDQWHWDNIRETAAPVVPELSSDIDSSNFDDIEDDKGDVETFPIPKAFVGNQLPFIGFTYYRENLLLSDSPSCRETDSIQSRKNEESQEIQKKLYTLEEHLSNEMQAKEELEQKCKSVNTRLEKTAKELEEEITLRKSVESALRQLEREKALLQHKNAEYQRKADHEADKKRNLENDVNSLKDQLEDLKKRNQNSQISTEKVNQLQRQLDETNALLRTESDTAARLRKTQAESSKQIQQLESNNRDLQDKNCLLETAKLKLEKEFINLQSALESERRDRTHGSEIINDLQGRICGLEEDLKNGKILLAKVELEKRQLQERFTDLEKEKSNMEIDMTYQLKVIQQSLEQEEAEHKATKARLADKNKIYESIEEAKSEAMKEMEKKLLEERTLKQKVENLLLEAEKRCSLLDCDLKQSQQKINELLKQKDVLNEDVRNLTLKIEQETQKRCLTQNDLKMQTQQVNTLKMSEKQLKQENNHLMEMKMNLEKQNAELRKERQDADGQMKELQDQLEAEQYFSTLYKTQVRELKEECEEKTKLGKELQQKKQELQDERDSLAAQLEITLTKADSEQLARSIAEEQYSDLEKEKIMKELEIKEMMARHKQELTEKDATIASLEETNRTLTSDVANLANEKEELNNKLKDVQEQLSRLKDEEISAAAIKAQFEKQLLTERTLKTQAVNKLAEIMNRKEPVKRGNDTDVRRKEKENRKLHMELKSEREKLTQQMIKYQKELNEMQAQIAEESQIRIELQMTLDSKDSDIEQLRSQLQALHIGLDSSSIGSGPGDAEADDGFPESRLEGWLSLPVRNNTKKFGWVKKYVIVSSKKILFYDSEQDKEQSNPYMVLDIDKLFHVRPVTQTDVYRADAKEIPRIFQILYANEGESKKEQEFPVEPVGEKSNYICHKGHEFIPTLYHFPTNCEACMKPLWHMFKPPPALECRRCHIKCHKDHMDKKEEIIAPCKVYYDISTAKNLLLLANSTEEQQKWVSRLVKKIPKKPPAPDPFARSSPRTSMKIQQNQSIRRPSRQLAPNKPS

**Q.** With `Cc1c(C(N)=O)c(O[C@H]2C[C@@]3(C[C@H](NC(=O)c4cnn5c(C6CC6)c(OCC(C)(C)O)ccc45)C3)C2)nn1C` (stereo partly drawn) [Example 37, 3-({(aR)-6-[7-cyclopropyl-6-(2-hydroxy-2-methylpropoxy)pyrazolo[1,5-a]pyridine-3-amido]spiro[3.3]heptan-2-yl}oxy)-1,5-dimethyl-1H-pyrazole-4-carboxamide] as the molecule, how does the IC50 read?
**A.** The IC50 was 259 nM.

**Q.** With `Cc1c(C(=O)N[C@H]2C[C@]3(C2)C[C@H](Oc2nn(-c4ccccc4)cc2C(N)=O)C3)cnn1-c1ccc(C#N)cc1` (stereo partly drawn) [Example 38, 3-({(aR)-6-[1-(4-cyanophenyl)-5-methyl-1H-pyrazole-4-amido]spiro[3.3]heptan-2-yl}oxy)-1-phenyl-1H-pyrazole-4-carboxamide] as the molecule, how does the IC50 read?
**A.** Its IC50 is 426 nM.

**Q.** `CC(C)(O)COc1ccc2c(C(=O)N[C@H]3C[C@]4(C3)C[C@H](Oc3c(C(N)=O)cnn3C(F)F)C4)cnn2c1C1CC1` (stereo partly drawn) [Example 39, 5-({(aR)-6-[7-cyclopropyl-6-(2-hydroxy-2-methylpropoxy)pyrazolo [1,5-a]pyridine-3-amido]spiro[3.3]heptan-2-yl}oxy)-1-(difluoromethyl)-1H-pyrazole-4-carboxamide] was tested. Which IC50 did it give?
**A.** Its IC50 is 2400 nM.

**Q.** Which IC50 does the source give for `NC(=O)c1cn(-c2ccccc2)nc1O[C@H]1C[C@@]2(C[C@H](NC(=O)c3cnn4cc(OCCC(F)(F)F)ccc34)C2)C1` (stereo partly drawn) [Example 40, 1-phenyl-3-{[(aR)-6-[6-(3,3,3-trifluoropropoxy)pyrazolo[1,5-a]pyridine-3-amido]spiro[3.3]heptan-2-yl]oxy}-1H-pyrazole-4-carboxamide] here?
**A.** The IC50 was 136 nM.

**Q.** Which IC50 does the source give for `N#Cc1cc(C(=O)N[C@H]2C[C@]3(C2)C[C@H](Oc2nn(-c4ccccc4)cc2C(N)=O)C3)cc(-c2cnn(C(F)F)c2)c1` (stereo partly drawn) [Example 41, 1-phenyl-3-{[(aR)-6-{3-cyano-5-[1-(difluoromethyl)-1H-pyrazol-4-yl]benzamido}spiro [3.3]heptan-2-yl]oxy}-1H-pyrazole-4-carboxamide] here?
**A.** Its IC50 is 55.6 nM.

**Q.** `CC(C)(O)COc1ccc2c(C(=O)N[C@H]3C[C@]4(C3)C[C@H](Oc3nn(-c5ccccc5)cc3C(N)=O)C4)nn(C(F)F)c2c1` (stereo partly drawn) [Example 42, 1-(difluoromethyl)-6-(2-hydroxy-2-methylpropoxy)-N-[(aR)-6-[(4-carbamoyl-1-phenyl-1H-pyrazol-3-yl)oxy]spiro[3.3]heptan-2-yl]-1H-indazole-3-carboxamide] was tested. Which IC50 did it give?
**A.** Its IC50 is 13.7 nM.

**Q.** How did the IC50 turn out when `Cc1nc(O[C@H]2C[C@@]3(C[C@H](NC(=O)c4cnn(-c5ccc(C#N)cc5)c4C)C3)C2)c(C(N)=O)s1` (stereo partly drawn) [Example 43, 2-methyl-4-{[(aR)-6-[1-(4-cyanophenyl)-5-methyl-1H-pyrazole-4-amido]spiro[3.3]heptan-2-yl]oxy}-1,3-thiazole-5-carboxamide] was run?
**A.** Its IC50 is 119 nM.

**Q.** For `Cc1c(C(=O)N[C@H]2C[C@]3(C2)C[C@H](Oc2nc(C4CC4)sc2C(N)=O)C3)cnn1-c1ccc(C#N)cc1` (stereo partly drawn) [Example 44, 2-cyclopropyl-4-{[(aR)-6-[1-(4-cyanophenyl)-5-methyl-1H-pyrazole-4-amido]spiro[3.3]heptan-2-yl]oxy}-1,3-thiazole-5-carboxamide], which IC50 is on record?
**A.** Its IC50 is 25.2 nM.

**Q.** For `Cc1c(C(=O)N[C@H]2C[C@]3(C2)C[C@H](Oc2nc(C4CC4)sc2C(N)=O)C3)cnn1-c1ccc(Cl)cc1` (stereo partly drawn) [Example 45, 2-cyclopropyl-4-{[(aR)-6-[1-(4-chlorophenyl)-5-methyl-1H-pyrazole-4-amido]spiro[3.3]heptan-2-yl]oxy}-1,3-thiazole-5-carboxamide], which IC50 is on record?
**A.** Its IC50 is 25 nM.

**Q.** With `Cc1c(C(=O)N[C@H]2C[C@]3(C2)C[C@H](Oc2nn(C)cc2C(N)=O)C3)cnn1-c1ccc(C#N)cc1` (stereo partly drawn) [Example 46, 1-(4-cyanophenyl)-5-methyl-N-[(aR)-6-[(4-carbamoyl-1-methyl-1H-pyrazol-3-yl)oxy]spiro[3.3]heptan-2-yl]-1H-pyrazole-4-carboxamide] as the molecule, how does the IC50 read?
**A.** The IC50 was 359 nM.

**Q.** For `Cc1c(C(=O)N[C@H]2C[C@]3(C2)C[C@H](Oc2nn(C)cc2C(N)=O)C3)cnn1-c1ccc(Cl)cc1` (stereo partly drawn) [Example 47, 1-(4-chlorophenyl)-5-methyl-N-[(aR)-6-[(4-carbamoyl-1-methyl-1H-pyrazol-3-yl)oxy]spiro[3.3]heptan-2-yl]-1H-pyrazole-4-carboxamide], which IC50 is on record?
**A.** The IC50 was 113 nM.

**Q.** For `COc1ccc(-n2ncc(C(=O)N[C@H]3C[C@]4(C3)C[C@H](Oc3nn(C)cc3C(N)=O)C4)c2C)cn1` (stereo partly drawn) [Example 48, 1-(6-methoxypyridin-3-yl)-5-methyl-N-[(aR)-6-[(4-carbamoyl-1-methyl-1H-pyrazol-3-yl)oxy]spiro[3.3]heptan-2-yl]-1H-pyrazole-4-carboxamide], which IC50 is on record?
**A.** Its IC50 is 685 nM.

**Q.** For `Cc1c(C(=O)N[C@H]2C[C@]3(C2)C[C@H](Oc2nn(-c4ccccc4)cc2C(N)=O)C3)cnn1-c1ccc(Cl)cc1` (stereo partly drawn) [Example 49, 1-phenyl-3-{[(aR)-6-[1-(4-chlorophenyl)-5-methyl-1H-pyrazole-4-amido]spiro[3.3]heptan-2-yl]oxy}-1H-pyrazole-4-carboxainide], which IC50 is on record?
**A.** The IC50 was 450 nM.

**Q.** `COc1ccc(-n2ncc(C(=O)N[C@H]3C[C@]4(C3)C[C@H](Oc3nn(C5CC5)cc3C(N)=O)C4)c2C)cn1` (stereo partly drawn) [Example 50, 1-cyclopropyl-3-{[(aR)-6-[1-(6-methoxypyridin-3-yl)-5-methyl-1H-pyrazole-4-amido]spiro[3.3]heptan-2-yl]oxy}-1H-pyrazole-4-carboxamide] was tested. Which IC50 did it give?
**A.** The IC50 was 322 nM.

**Q.** With `Cc1c(C(=O)N[C@H]2C[C@]3(C2)C[C@H](Oc2nn(C4CC4)cc2C(N)=O)C3)cnn1-c1ccc(Cl)cc1` (stereo partly drawn) [Example 51, 1-cyclopropyl-3-{[(aR)-6-[1-(4-chlorophenyl)-5-methyl-1H-pyrazole-4-amido]spiro[3.3]heptan-2-yl]oxy}-1H-pyrazole-4-carboxamide] as the molecule, how does the IC50 read?
**A.** The IC50 was 44.8 nM.

**Q.** Which IC50 does the source give for `NC(=O)c1cn(C(F)F)nc1O[C@H]1C[C@@]2(C[C@H](NC(=O)c3cnn4cc(OCC(O)(C(F)(F)F)C(F)(F)F)ccc34)C2)C1` (stereo partly drawn) [Example 52, 1-(difluoromethyl)-3-{[(aR)-6-{6-[3,3,3-trifluoro-2-hydxoxy-2-(trifluoromethyl)propoxy]pyrazolo [1,5-a]pyridine-3-amido}spiro[3.3]heptan-2-yl]oxy}-1H-pyrazole-4-carboxamide] here?
**A.** The IC50 was 33.9 nM.

**Q.** With `NC(=O)c1cn(C(F)F)nc1O[C@H]1C[C@@]2(C[C@H](NC(=O)c3cnn4cc(OCC(F)(F)F)ccc34)C2)C1` (stereo partly drawn) [Example 53, 1-(difluoromethyl)-3-{[(aR)-6-[6-(2,2,2-trifluoroethoxy)pyrazolo[1,5-a]pyridine-3-amido]spiro[3.3]heptan-2-yl]oxy}-1H-pyrazole-4-carboxamide] as the molecule, how does the IC50 read?
**A.** Its IC50 is 22 nM.

**Q.** How did the IC50 turn out when `Cc1c(C(=O)N[C@H]2C[C@]3(C2)C[C@H](Oc2nn(C(F)F)cc2C(N)=O)C3)cnn1-c1ccc(C#N)cc1` (stereo partly drawn) [Example 54, 1-(4-cyanophenyl)-5-methyl-N-[(aR)-6-{[4-carbamoyl-1-(difluoromethyl)-1H-pyrazol-3-yl]oxy}spiro[3.3]heptan-2-yl]-1H-pyrazole-4-carboxamide] was run?
**A.** Its IC50 is 253 nM.

**Q.** With `Cc1c(C(=O)N[C@H]2C[C@]3(C2)C[C@H](Oc2nn(C(F)F)cc2C(N)=O)C3)cnn1-c1ccc(Cl)cc1` (stereo partly drawn) [Example 55, 1-(4-chlorophenyl)-5-methyl-N-[(aR)-6-{[4-carbamoyl-1-(difluoromethyl)-1H-pyrazol-3-yl]oxy}spiro[3.3]heptan-2-yl]-1H-pyrazole-4-carboxamide] as the molecule, how does the IC50 read?
**A.** Its IC50 is 78.3 nM.

**Q.** With `NC(=O)c1cn(C2CC2)nc1O[C@H]1C[C@@]2(C[C@H](NC(=O)c3cnn4cc(OCC(F)(F)F)ccc34)C2)C1` (stereo partly drawn) [Example 56, 1-cyclopropyl-3-{[(aR)-6-[6-(2,2,2-trifluoroethoxy)pyrazolo [1,5-a]pyridine-3-amido]spiro[3.3]heptan-2-yl]oxy}-1H-pyrazole-4-carboxamide] as the molecule, how does the IC50 read?
**A.** The IC50 was 53.2 nM.

**Q.** With `NC(=O)c1cn(C2CC2)nc1O[C@H]1C[C@@]2(C[C@H](NC(=O)c3cnn4cc(OCC(F)F)ccc34)C2)C1` (stereo partly drawn) [Example 57, 1-cyclopropyl-3-{[(aR)-6-[6-(2,2-difluoroethoxy)pyrazolo[1,5-a]pyridine-3-amido]spiro[3.3]heptan-2-yl]oxy}-1H-pyrazole-4-carboxamide] as the molecule, how does the IC50 read?
**A.** Its IC50 is 15.9 nM.

**Q.** `NC(=O)c1cn(C2CC2)nc1O[C@H]1C[C@@]2(C[C@H](NC(=O)c3nc(C(F)(F)F)n4ccccc34)C2)C1` (stereo partly drawn) [Example 58, 1-cyclopropyl-3-{[(aR)-6-[3-(trifluoromethyl)imidazo[1,5-a]pyridine-1-amido]spiro[3.3]heptan-2-yl]oxy}-1H-pyrazole-4-carboxamide] was tested. Which IC50 did it give?
**A.** The IC50 was 204 nM.

**Q.** `NC(=O)c1cn(C2CC2)nc1O[C@H]1C[C@@]2(C[C@H](NC(=O)c3nc(C(F)(F)F)n4cc(-c5ccc(F)nc5)ccc34)C2)C1` (stereo partly drawn) [Example 59, 1-cyclopropyl-3-{[(aR)-6-[6-(6-fluoropyridin-3-yl)-3-(trifluoromethyl)imidazo[1,5-a]pyridine-1-amido]spiro[3.3]heptan-2-yl]oxy}-1H-pyrazole-4-carboxamide] was tested. Which IC50 did it give?
**A.** Its IC50 is 5.3 nM.

**Q.** `NC(=O)c1cn(C2CC2)nc1O[C@H]1C[C@@]2(C[C@H](NC(=O)c3nc(C(F)(F)F)n4cc(Br)ccc34)C2)C1` (stereo partly drawn) [Example 60, 1-cyclopropyl-3-{[(aR)-6-[6-bromo-3-(trifluoromethyl)imidazo[1,5-a]pyridine-1-amido]spiro[3.3]heptan-2-yl]oxy}-1H-pyrazole-4-carboxamide] was tested. Which IC50 did it give?
**A.** The IC50 was 35.5 nM.

**Q.** Which IC50 does the source give for `NC(=O)c1sc(C2CC2)nc1O[C@H]1C[C@@]2(C[C@H](NC(=O)c3cnn4cc(OCC(O)(C(F)(F)F)C(F)(F)F)ccc34)C2)C1` (stereo partly drawn) [Example 61, 2-cyclopropyl-4-{[(aR)-6-{6-[3,3,3-trifluoro-2-hydroxy-2-(trifluoromethyl)propoxy]pyrazolo[1,5-a]pyridine-3-amido}spiro[3.3]heptan-2-yl]oxy}-1,3-thiazole-5-carboxamide] here?
**A.** The IC50 was 55.5 nM.

**Q.** Which IC50 does the source give for `NC(=O)c1sc(C2CC2)nc1O[C@H]1CC2(C[C@H](NC(=O)c3cnn4cc(OCC(F)(F)F)ccc34)C2)C1` (stereo partly drawn) [Example 62, 2-cyclopropyl-4-{[(aR)-6-[6-(2,2,2-trifluoroethoxy)pyrazolo [1,5-a]pyridine-3-amido]spiro[3.3]heptan-2-yl]oxy}-1,3-thiazole-5-carboxamide] here?
**A.** Its IC50 is 11.6 nM.
